The source of these data is US7097866B2, “Composition and method to whiten and exfoliate skin” (Desert Whale Jojoba Company, priority 2002, dated 2006).

In the assay the test system is mouse B16F10 melanoma cells. In words: melanin content and cell pellet color of mouse B16F10 melanoma cells cultured 6 days. It is filed as cell-based. Details: key to Vidjual color determination of cell pellet (score 5 black to 1 white, 0 not detectable): A Vidjual score of 5 means the cell pellet was black; A Vidjual score of 1 means the cell pellet was white; A Vidjual score of 0 means the cell pellet was not detectable, i.e. it has no color at all. The following applies: Sodium lactate positive control; for Vidjual color determination of cell pellet (score 5 black to 1 white, 0 not detectable): 25 mM or 50 mM level; for total melanin content per microgram of protein: added at either 25 mM or 50 mM level.

For `CC(O)C(=O)[O-].[Na+]` (stereo not shown) [Positive Control, Sodium lactate], where the note is “table row 0.5 v/v %”, the “Vidjual color determination of cell pellet (score 5 black to 1 white, 0 not detectable)” value is on record as 3 and the “total melanin content per microgram of protein” value is listed as 0.240 micrograms per microgram of pr. Further, for the setting “table row 1.0 v/v %”, the “Vidjual color determination of cell pellet (score 5 black to 1 white, 0 not detectable)” value came to 1 and the “total melanin content per microgram of protein” value is listed as 0.107 micrograms per microgram of pr.
